Data published in patent publication US10980769B2, “Tiglien-3-one derivatives” (QBIOTICS PTY LTD, priority 2005, dated 2021).
Entries after “also recorded” stand apart in the source; their conditions may differ.

Tests used:
[1] = system: NS1 murine myeloma cell line; experiment: CyTOX (Cy) chromogenic cytotoxicity bioassay; type: cell-based
Description: CyTOX (alternatively referred to herein as Cy) is a microtitre plate bioassay use to identify potential antitumour actives. CyTOX is a chromogenic bioassay with broad application to a wide range of tumour and non-tumour cell lines.
CyTOX features a liquid media into which the test compound has been incorporated together with a novel chromogen. As the cells grow and divide the chromogen is metabolised from purple in a single step process to a colourless metabolite. CyTOX was undertaken using NS1 murine myeloma cell line as a guide to mammalian cell toxicity.
Briefly, in CyTOX the cells were applied to the media containing the test chemical and allowed to grow for 72 hours. The assay was monitored at 24, 48 and 72 hours and the active wells identified.

PKC = PKC activation in cultured tumour cells (scattering and growth inhibition of MCF7); type: cell-based, human; details: defined by scattering and growth inhibition of MCF7 breast cancer cells
HT-29 colon tumour cells = experiment: Cell scattering of cultured cells; type: cell-based, human
Description: In addition, scattering of MCF-7 and HT-29 colon tumour cells was observed, typical of PKC activators. […] Additionally, given their similarity in structure, EBI-47, EBI-59 and EBI-61 are also considered to be protein kinase C activators.

B16 mouse melanoma = experiment: Topical treatment of B16 melanoma tumours in C57BL/6 mice; type: in vivo
Description: Tumour cells were injected subcutaneously (2 million cells/site in 50 μL culture medium for LK2 cells, 0.5 million for B16) into 4 sites each on the flanks of nude mice (for LK2 cells) or C57BL/6 mice (B16 mouse melanoma cells). When tumours became visible (2-4 mm diameter) five to 10 days after injection of cells, 37 μg of EBI-46 in 25 μL, of isopropanol gel was applied to each tumour site, each day for 3 days. Tumour size was measured with calipers at appropriate intervals.
Animal experiments were conducted under Queensland Institute of Medical Research (QIMR) Animal Ethics Committee approvals. The B16 mouse melanoma model was obtained by injecting 0.5 million B16 mouse melanoma cells subcutaneously into each of the 2 flanks of a male C57BL/6 mouse. The human tumour xenografts were obtained by injecting 2 million of the respective tumour cell line into each of 4 sites on the flanks of male nude mice (BALB/c background). EBI-46 was applied: (a) topically by dilution of a concentrated solution in acetone into an isopropanol gel, once a day for 3 days; (b) intralesionally by injection into the tumour of drug dissolved in 25% propylene glycol-0.1 M saline, (c) systemically by injection intraperitoneally in 25% propylene glycol in 0.1 M saline. Tumour size was measured with electronic callipers in mm and converted to volume (cubic mm) using the formula: Tumour volume=length×breadth×breadth/2. Results
Topical application of EBI-46 in an isopropanol gel was carried out on the aggressive B16 mouse melanoma in its natural (syngeneic) host, C57BL/6 mice (0.5 million tumour cells injected per site).
The frequency (1 daily dose for 3 days only) and dose level for topical application of PKC activators was selected on the basis of in vitro activity on cell lines. The materials were dissolved in acetone and diluted into an isopropanol gel for topical application.
The aggressive and rapidly growing B16 mouse melanoma is recognised as a very stringent tumour model in which to test anticancer agents. Stringency was further increased by injecting at least 10× more tumour cells than the minimum required to form a tumour in the animal. […] Such tumours could be distinguished from subcutaneous tumours by their immobility when the skin was pulled around the body of the animal.

[2] = system: human nasopharyngeal tumour; experiment: Intralesional injection of human nasopharyngeal tumour in SCID-NOD mice; type: in vivo, mouse; details: up to 3 injections, total of 25 μg in 25% propylene glycol-saline, 2 mice
Description: A second mouse model was tested in a pilot study, involving an 8 mm diameter human nasopharyngeal tumour implanted and growing subcutaneously on the neck of a SCID-NOD mouse. Up to 3 injections of EBI-46 (total of 25 μg in 75 μL25% propylene glycol-saline) were made into the NPC tumours of 2 mice.

Solubility tests = type: physicochemical
Description: It requires a small amount of such solvents to form aqueous solutions. […] Higher solubilities may well be achieveable.

[3] = topical, approximately 150 μg/site

SMILES: C/C=C(\C)C(=O)OC1C(C)C2(O)C(C3OC3(CO)C(O)C3(O)C(=O)C(C)=CC32)C2C(C)(C)C12OC(=O)C(C)CC (centres unmarked) [EBI-46, 12-tigloyl-13-(2-methylbutanoyl)-6,7-epoxy-4,5,9,12,13,20-hexahydroxy-1-tiglian-3-one]
- Cy Titre [1]: 8
- Cy LD99 ([1]; Table 6a, last well with activity, real value may be lower): 7.8 pg/mL
- PKC activity (PKC): yes
- scattering of HT-29 colon tumour cells (HT-29 colon tumour cells): scattering
- systemic toxicity or lung metastases on post mortem (B16 mouse melanoma; topical 37 μg per site once a day for 3 days): There were no signs of
- tumour growth (B16 mouse melanoma; topical 37 μg per site once a day for 3 days starting at day 5): inhibition of tumour growth.
- inflammatory response (B16 mouse melanoma; [3]): mild
- systemic toxicity or lung metastases (B16 mouse melanoma; [3]): no sign of systemic toxicity or lung metastases
- tumour sites cured (B16 mouse melanoma; [3]): one site apparently cured
- tumour response (B16 mouse melanoma; topical, approximately 150 μg/site, 1 daily dose for 3 days): good response
- tumour outcome [2]: no sign of residual tumour; also recorded: delayed but not ablated
- solubility (Solubility tests; 5 μg/mL in 99.9% water): 100%
- solubility (Solubility tests; 50 μg/mL in 99% water): 100%
- solubility (Solubility tests; 450 μg/mL in 90% water): 100%
- solubility in vehicle (Solubility tests; 25% propylene glycol-saline, 250 μg/mL): no sign of insolubility
- solubility in vehicle (Solubility tests; PEG 400 containing 10% ethanol): freely soluble
- solubility in organic solvents (Solubility tests; acetone, alcohols and PEG 400): highly soluble
